Source: US20240057638A1, “COMPOSITIONS FOR REDUCING METHANE EMISSION, METHODS FOR IMPROVING THE METABOLIC EFFICIENCY OF RUMINANT ANIMALS AND METHANOGENESIS INHIBITOR ADMINISTRATION” (MOOTRAL INNOVATIONS LIMITED, priority 2020, published 2024)

Tested on: Methanococcus maripaludis
Experiment: Inhibition of methane production by Methanococcus maripaludis culture (pressure drop by manometer after 24 h)
Assay type: cell-based
Details: for % Inhibition Gas: 37° C.
Experimental: For this experiment, bromoform was prepped at 100 mM by adding 8.75 μl bromoform to 991 μl DMSO. This was diluted 10x diluted to generate a 10 mM solution and further diluted to generate 0.12- and 0.156-mM stock solutions. Allicin stock solutions were prepared by adding 48.6 μl allicin to 951.4 μl DMSO to make a 300 mM stock solution and 32.5 μl allicin to 967.5 μl DMSO to make a 200 mM stock solution. The experiment was set up by adding 5 ml of M141 medium (https://www.dsmz.de/microorganisms/medium/pdf/DSMZ_Medium141.pdf) to a screw cap Hungate tube followed by the addition of 5 μl allicin and/or 5 μl bromoform or 10 μl DMSO as follows: • Tube 1: DMSO (10 μl) • Tube 2: Bromoform (5 μl 0.120 mM) (120 nM final)+5 μl DMSO • Tube 3: Bromoform (5 μl 0.156 mM) (156 nM final)+5 μl DMSO • Tube 4: Allicin (5 μl 200 mM) (200 μM final)+5 μl DMSO • Tube 5: Allicin (5 μl 300 mM) (300 μM final)+5 μl DMSO • Tube 6: Bromoform (5 μl 0.120 mM) (120 nM final)+Allicin (5 μl 200 mM) (200 μM final) • Tube 7: Bromoform (5 μl 0.120 mM) (120 nM final)+Allicin (5 μl 300 mM) (300 μM final) • Tube 8: Bromoform (5 μl 0.156 mM) (156 nM final)+Allicin (5 μl 200 mM) (200 μM final) • Tube 9: Bromoform (5 μl 0.156 mM) (156 nM final)+Allicin (5 μl 300 mM) (300 μM final)
After the addition of the test substances, 500 μl of an overnight M. maripaludis culture was added to each reaction tube. Each tube was gassed with 80% H2/20% CO2 to 240 kPa and incubated at 37° C. for 24 h.
After the 24 h incubation the pressure inside the tube was measured using a manometer. Given that 5 moles of H2/CO2 are consumed to generate 1 mole of CH4 the drop in pressure observed was used to calculate the amount of methane by the control and test reactions from which a percent inhibition was calculated.
For this experiment, bromoform was prepped at 100 mM by adding 8.75 μl bromoform to 991 μl DMSO. This was diluted 10× diluted to generate a 10 mM solution and further diluted to generate 0.10- and 0.156-mM stock solutions. The sample was prepared by adding 245 mg NXRH214 powder to 35 ml M141 medium (https://www.dsmz.de/microorganisms/medium/pdf/DSMZ_Medium141.pdf) to generate a 7 mg/ml stock solution. NXRH214 powder is a garlic powder (allicin) and citrus extract (polyphenol flavonoid mix) with a ratio of 93:7, where the flavonoid mix comprises mainly naringin and neohesperidin.

[1] = Methanococcus maripaludis, read-out: % Inhibition Gas

## C=CCS[S@@+]([O-])CC=C (stereo in doubt) [Allicin, allicin]
Allicin 200 μM with DMSO
  % Inhibition Gas: 0%
Allicin 300 μM with DMSO
  % Inhibition Gas: 19%

## BrC(Br)Br [Bromoform, bromoform]
[1]
  inhibition at 0.1 µM: 0%
  inhibition at 0.156 µM: 0.5%
